{"source": "patent US6380181B1", "about": "“Synthetic catechol derivatives, method for production and use thereof” (priority 1996, dated 2002)", "assay_type_in_all_cases": "cell-based", "key": {"[1]": {"system": "E. coli mutant BR185 tonB−"}, "[2]": {"system": "Klebsiella pneumoniae ATCC 10031", "assay": "Agar diffusion test", "settings": "concentration 100 μg/ml"}, "[3]": {"system": "E. coli mutant PLB3268 ompF++", "settings": "E. coli mutant PLB3268 ompF++ (ompF super-expressed)", "from_the_text": "(§1) The efficacy against β-lactamase formers and against multi-resistant germs is therefore due to a new type of mechanism for overcoming the penetration resistance, by means of which the ratio of active ingredient to enzyme in the bacterial cell is influenced so that not all antibiotic molecules are inactivated before they reach their target.\nPLB268: ompF- was super-expressed."}, "[4]": {"system": "Stenotrophomonas maltophilia GN 12873", "assay": "Microdilution test (MIC)", "settings": "GN12873"}, "[5]": {"system": "Salmonella gallinarum ATCC 9184", "settings": "concentration 100 μg/ml; Salmonella galinarum ATCC 9184"}, "E. coli DC0": {"system": "E. coli DC0", "assay": "Microdilution test (MIC)", "settings": "Escherichia coli, DC0, read-out: MIC values, microdilution test", "method_in_brief": "(§2)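 Broth microdilution MIC determination; paired strains (Pseudomonas KW 799 WT vs /61, E. coli DC0 vs DC2) used to assess the effect of improved penetration capacity on compound efficacy.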"}, "[6]": {"system": "Pseudomonas aeruginosa KW 799/61", "assay": "Microdilution test (MIC)", "settings": "Pseudomonas aeruginosa, KW799/61; P. aeruginosa KW 799/61", "method_in_brief": "as §2"}, "[7]": {"system": "Pseudomonas aeruginosa KW 799 WT", "assay": "Microdilution test (MIC)", "settings": "Pseudomonas aeruginosa, KW799WT; P. aeruginosa KW 799/WT", "method_in_brief": "as §2"}, "[8]": {"system": "Salmonella gallinarum ATCC 9184", "assay": "microbe, parasite or virus in culture", "settings": "Salmonella enterica; Salmonella gallinarum ATCC9184; read-out: MIC values, microdilution test", "method": "(§3) The minimum inhibiting concentrations (MICs) were determined for the following bacterial strains: Pseudomonas aeruginosa NCTC 10701, NCTC 10662, SG 137, ATCC 27853, KW 799 WT and KW 799/61, E. coli DCO, DC2 and ATCC 25922, Serratia marcescens SG 621; Salmonella gallinarum ATCC 9184, Klebsiella pneumoniae ATCC 10031 and SG 117."}, "[9]": {"system": "Pseudomonas aeruginosa ATCC 9027 (wild type)", "assay": "Agar diffusion test", "settings": "concentration 100 μg/ml; P. aeruginosa ATCC 9027"}, "[10]": {"system": "Pseudomonas aeruginosa ATCC 27853 (wild type)", "assay": "Agar diffusion test", "settings": "concentration 100 μg/ml; P. aeruginosa ATCC 27853"}, "[11]": {"system": "E. coli DC2 (penetration mutant)", "settings": "concentration 100 μg/ml"}, "[12]": {"system": "Pseudomonas aeruginosa Oxa6 (plasmid-coded β-lactamase)", "settings": "concentration 100 μg/ml; P. aeruginosa OXA 6"}, "[13]": {"system": "Pseudomonas aeruginosa KW 799/61 (penetration mutant)", "settings": "concentration 100 μg/ml; P. aeruginosa KW799/61"}, "[14]": {"system": "Pseudomonas aeruginosa NCTC 10701", "assay": "Agar diffusion test", "settings": "concentration 100 μg/ml; P. aeruginosa NCTC 10701"}, "E. coli DC0 (wild type)": {"system": "E. coli DC0 (wild type)", "assay": "Agar diffusion test", "settings": "concentration 100 μg/ml"}, "[15]": {"system": "Pseudomonas aeruginosa NCTC 10662", "assay": "Agar diffusion test", "settings": "concentration 100 μg/ml; P. aeruginosa NCTC 10662"}, "E. coli DC2": {"system": "E. coli DC2", "assay": "microbe, parasite or virus in culture", "settings": "Escherichia coli, read-out: MIC values, microdilution test", "method_in_brief": "as §2"}, "[16]": {"system": "Stenotrophomonas maltophilia IMET 10402", "assay": "Agar diffusion test", "settings": "concentration 100 μg/ml"}, "[17]": {"system": "Pseudomonas aeruginosa NPS1 (plasmid-coded β-lactamase)", "settings": "concentration 100 μg/ml; P. aeruginosa NPS 1"}, "[18]": {"system": "Pseudomonas aeruginosa ATCC 27853", "assay": "Microdilution test (MIC)", "settings": "Pseudomonas aeruginosa, ATCC27853; P. aeruginosa ATCC 27853", "method": "as §3"}, "[19]": {"system": "Klebsiella pneumoniae ATCC 10031", "assay": "Microdilution test (MIC)", "settings": "ATCC10031", "method": "as §3"}, "[20]": {"system": "Pseudomonas aeruginosa SG 137", "assay": "Microdilution test (MIC)", "settings": "Pseudomonas aeruginosa, SG137; P. aeruginosa SG 137", "method": "as §3"}, "[21]": {"system": "Serratia marcescens SG 621", "assay": "Microdilution test (MIC)", "settings": "SG621", "method": "as §3"}, "E. coli ATCC 25922": {"system": "E. coli ATCC 25922", "assay": "Microdilution test (MIC)", "settings": "Escherichia coli, ATCC25922", "method": "as §3"}, "[22]": {"system": "Pseudomonas aeruginosa NCTC 10662", "assay": "Microdilution test (MIC)", "settings": "Pseudomonas aeruginosa, NCTC10662; P. aeruginosa NCTC 10662", "method": "as §3"}, "[23]": {"system": "Pseudomonas aeruginosa NCTC 10701", "assay": "Microdilution test (MIC)", "settings": "Pseudomonas aeruginosa, NCTC10701; P. aeruginosa NCTC 10701", "method": "as §3"}, "[24]": {"system": "Klebsiella pneumoniae SG 117", "assay": "Microdilution test (MIC)", "settings": "SG117", "method": "as §3"}, "[25]": {"system": "Stenotrophomonas maltophilia GN 12873", "assay": "Agar diffusion test", "settings": "concentration 100 μg/ml"}, "[26]": {"system": "Pseudomonas aeruginosa KW 799 WT (wild type)", "assay": "Agar diffusion test", "settings": "concentration 100 μg/ml; P. aeruginosa KW799/WT"}, "E. coli mutant KB4 ompF−": {"system": "E. coli mutant KB4 ompF−", "from_the_text": "as §1"}, "E. coli mutant KB5 ompC−": {"system": "E. coli mutant KB5 ompC−", "from_the_text": "as §1"}, "[27]": {"system": "Pseudomonas aeruginosa SG 137 (carbenicillin-resistant)", "assay": "Agar diffusion test", "settings": "concentration 100 μg/ml; P. aeruginosa SG 137"}, "[28]": {"system": "Klebsiella pneumoniae SG 117", "assay": "Agar diffusion test", "settings": "concentration 100 μg/ml"}, "E. coli AB2847 tonB+": {"system": "E. coli AB2847 tonB+"}}}
{"smiles": "CC1(C)S[C@@H]2[C@H](NC(=O)[C@H](NC(=O)N3CCNC3=O)c3ccccc3)C(=O)N2[C@H]1C(=O)O", "note": "[Azlocillin, reference compound]", "values": [{"measurement": "inhibition spot diameter in agar diffusion test", "setting": "[1]", "result": 8, "unit": "mm"}, {"measurement": "inhibition spot diameter in the agar diffusion test", "setting": "[2]", "result": 15, "unit": "mm"}, {"measurement": "inhibition spot diameter in agar diffusion test", "setting": "[3]", "result": 17.5, "unit": "mm"}, {"measurement": "MIC", "setting": "[4]", "result": "25 to 100", "unit": "µg/mL"}, {"measurement": "inhibition spot diameter in the agar diffusion test", "setting": "[5]", "result": 21, "unit": "mm"}, {"measurement": "MIC", "setting": "E. coli DC0", "result": 12.5, "unit": "µg/mL"}, {"measurement": "MIC", "setting": "[6]", "result": 0.2, "unit": "µg/mL"}, {"measurement": "MIC", "setting": "[7]", "result": 3.12, "unit": "µg/mL"}, {"measurement": "MIC", "setting": "[8]", "result": 3.12, "unit": "µg/mL"}, {"measurement": "inhibition spot diameter in the agar diffusion test", "setting": "[9]", "result": 15, "unit": "mm"}, {"measurement": "inhibition spot diameter in the agar diffusion test", "setting": "[10]", "result": 19, "unit": "mm"}, {"measurement": "inhibition spot diameter in the agar diffusion test", "setting": "[11]", "result": 33, "unit": "mm"}, {"measurement": "inhibition spot diameter in the agar diffusion test", "setting": "[12]", "result": 0, "unit": "mm"}, {"measurement": "inhibition spot diameter in the agar diffusion test", "setting": "[13]", "result": 40, "unit": "mm"}, {"measurement": "inhibition spot diameter in the agar diffusion test", "setting": "[14]", "result": 27, "unit": "mm"}, {"measurement": "inhibition spot diameter in the agar diffusion test", "setting": "E. coli DC0 (wild type)", "result": 16, "unit": "mm"}, {"measurement": "inhibition spot diameter in the agar diffusion test", "setting": "[15]", "result": 17, "unit": "mm"}, {"measurement": "MIC", "setting": "E. coli DC2", "result": 0.78, "unit": "µg/mL"}, {"measurement": "inhibition spot diameter in the agar diffusion test", "setting": "[16]", "result": 21, "unit": "mm"}, {"measurement": "inhibition spot diameter in the agar diffusion test", "setting": "[17]", "result": 0, "unit": "mm"}, {"measurement": "MIC", "setting": "[18]", "result": 6.25, "unit": "µg/mL"}, {"measurement": "MIC", "setting": "[19]", "result": 6.25, "unit": "µg/mL"}, {"measurement": "MIC", "setting": "[20]", "result": 6.25, "unit": "µg/mL"}, {"measurement": "MIC", "setting": "[21]", "result": 50, "unit": "µg/mL"}, {"measurement": "MIC", "setting": "E. coli ATCC 25922", "result": 6.25, "unit": "µg/mL"}, {"measurement": "MIC", "setting": "[22]", "result": 6.25, "unit": "µg/mL"}, {"measurement": "MIC", "setting": "[23]", "result": 0.2, "unit": "µg/mL"}, {"measurement": "MIC", "setting": "[24]", "result": 6.25, "unit": "µg/mL"}, {"measurement": "inhibition spot diameter in the agar diffusion test", "setting": "[25]", "result": 0, "unit": "mm"}, {"measurement": "inhibition spot diameter in the agar diffusion test", "setting": "[26]", "result": 27, "unit": "mm"}, {"measurement": "inhibition spot diameter in agar diffusion test", "setting": "E. coli mutant KB4 ompF−", "result": 6.5, "unit": "mm"}, {"measurement": "inhibition spot diameter in agar diffusion test", "setting": "E. coli mutant KB5 ompC−", "result": 4, "unit": "mm"}, {"measurement": "inhibition spot diameter in the agar diffusion test", "setting": "[27]", "result": 17, "unit": "mm"}, {"measurement": "inhibition spot diameter in the agar diffusion test", "setting": "[28]", "result": 18, "unit": "mm"}, {"measurement": "inhibition spot diameter in agar diffusion test", "setting": "E. coli AB2847 tonB+", "result": 8, "unit": "mm"}]}
